Source: patent US10173995B2, “Pyridine compounds used as PI3 kinase inhibitors” (Teligene Ltd., priority 2013, dated 2019)

Columns and labels:
[1] = system: MCF-7 human breast cancer cell lines; assay: MCF-7 cell proliferation assay (CCK-8/WST-8, 72 hours); format: cell-based; settings: MCF7, WST-8
Experimental: A representative number of compounds were assayed against MCF-7 human breast cancer cell lines using the cell proliferation assay:
1. MCF-7 cells were cultured in EMEM (GIBCO, Cat#41500) medium supplemented with 10% fetal bovine serum, 0.01 mg/ml human recombinant insulin and 1% penicillin-streptomycin solution, in the temperature of 37° C., 5% CO2 and 95% humidity. The cells were harvested during the logarithmic growth period and counted with hemocytometer. The cell viability will be over 98% by trypan blue exclusion. Cell Counting Kit-8 (Dojindo, Cat# CK04) was used. 2. A cell suspension (100 μl) was added into 96-well plates (triplicates for each cell concentration), the cell density was 4.0×10^3/well. The next day, the test articles or positive drug stock solution were dissolved in DMSO at the concentration of 10 mM, the stock solutions were diluted with DMSO by serial 3 or 10 fold dilution. Then the test articles dilutions were further diluted with culture medium to the final concentrations of (10.0 μM, 3.33 μM, 1.11 μM, 366 nM, 122 nM, 40.7 nM, 13.6 nM, 4.52 nM and 0 nM), the positive drug dilutions were further diluted with culture medium to 9 final concentrations of (10 μM, 1 μM, 100 nM, 10 nM, 1 nM, 0.1 nM, 0.01 nM, 0.001 nM and 0 nM). […] The absorbance was recorded at 450 nm using Victor Multilabel Plate Reader. […]

[2] = system: A549 cell line xenograft; assay: In vivo subcutaneous A549 cell line xenograft model in nude mice, tumor growth inhibition; settings: for Tumor growth inhibition (TGI, %) at 14 days: day 14, A549 xenograft nude mice
Experimental: (§1) A representative protocol for the in vivo experiment is as follows to establish the subcutaneous A549 cell line xenograft model in nude mice and to evaluate the in vivo therapeutic efficacy of the compounds: A549 cells were cultured in RPMI1640 containing 10% fetal bovine serum, 1% L-glutamine, 100 U/mL penicillinG and 100 μg/mL streptomycin. Cells in logarithmic growth phase were harvested and resuspended in 1×PBS for implantation.
(§2) Tumor xenografts were established by injecting tumor cells 5×10^6/mouse into the right flank by sc under sterile conditions. When the tumors reached an appropriate size (100-200 mm^3), mice were randomized into 6 mice per group (8 mice in control group). The tumors were measured using a caliper in two dimensions, length (a), and width (b). Tumor volumes were estimated from measurements of two diameters of the individual tumors as follows: Tumor Volume(mm^3)=(a×b^2)/2 The tumor sizes and animal body weights were measured twice a week. Mice were observed daily for clinical signs. Blood samples were collected 2 hours after last treatment; plasma samples were prepared and stored at −80° C. Tumor tissues were separated, weighed, taken picture, and subsequently stored at −80° C. for further analysis. All animal experiments were performed in accordance with the Guidelines for Use and Care of Animals of the University of Traditional Medicine. The parameters for in vivo efficacy evaluation were calculated according to the guidance of SFDA. Percent T/C (%) was calculated with the following formula: T/C(%)=(TRTV/CRTV)×100%, where TRTV and CRTV stand for relative tumor volume in treatment group and vehicle control group, respectively. Relative tumor volume (RTV) was calculated using the formula: RTV=Vt/V0, where Vt represents volume on testing day, and V0 represents volume on first day of treatment. Tumor growth inhibition (TGI, %) were calculated as TGI (%)=(Ctw−Ttw)/Ctw×100%, where Ctw and Ttw represent mean tumor weight in vehicle control and treatment group, respectively.
(§3) Compound Preparation: Test articles were dissolved in 100% N-methylpyrrolidone (NMP) and 10× solutions were prepared every five days, aliquotted, and stored in the dark at room temperature. On each treatment day, stock solution aliquots were diluted with polyethylene glycol (PEG300) to provide the formulated drug in 10% NMP: 90% PEG300. Dosing solutions were protected from light, and the formulated drug was administered within 1 hour after preparation. In all groups, the dosing volume of 10 mL/kg (0.2 mL/20 g mouse) was scaled to the weight of each animal as determined on the day of dosing, except on weekends when the previous BW is carried forward. Test articles were administered by oral gavage (p.o.) once daily until the end of the study.
(§4) At study endpoint, after blood collection, mice were practiced euthanasia by cervical dislocation, the tumor tissue was collected first, then abdominal cavity was cut open, liver and spleen were excised, then weight after the gallbladder was removed respectively. Organ weight between the treated versus the control groups were compared.

[3] = biological target: PI3K alpha (PIK3CA) (Homo sapiens (Human), UniProt P42336); assay: In vitro assay of ability to inhibit PI3K alpha activity (phage-tagged kinase competition binding, qPCR)
Experimental: (§5) (a) An in vitro assay which determines the ability of a test compound to inhibit PI3K alpha activity: PI3 alpha (PIK3CA) kinase-tagged T7 phage strains were prepared in an E. coli host derived from the BL21 strain. E. coli were grown to log-phase and infected with T7 phage and incubated with shaking at 32° C. until lysis. The lysates were centrifuged and filtered to remove cell debris. The remaining kinases were produced in HEK-293 cells and subsequently tagged with DNA for qPCR detection. […] The liganded beads were blocked with excess biotin and washed with blocking buffer (SeaBlock (Pierce), 1% BSA, 0.05% Tween 20, 1 mM DTT) to remove unbound ligand and to reduce non-specific binding. Binding reactions were assembled by combining kinases, liganded affinity beads, and test compounds in 1× binding buffer (20% SeaBlock, 0.17×PBS, 0.05% Tween 20, 6 mM DTT). All reactions were performed in polystyrene 96-well plates in a final volume of 0.135 ml. The assay plates were incubated at room temperature with shaking for 1 hour and the affinity beads were washed with wash buffer (1×PBS, 0.05% Tween 20). […] The kinase concentration in the eluates was measured by qPCR.
An 11-point 3-fold serial dilution of each test compound was prepared in 100% DMSO at 100× final test concentration and subsequently diluted to 1× in the assay (final DMSO concentration=1%).
Binding constants (Kd's) were calculated with a standard dose-response curve using the Hill equation: Response=Background+(Signal−Background)/(1+(Kd^Hill Slope/Dose^Hill Slope)) The Hill Slope was set to −1. Curves were fitted using a non-linear least square fit with the Levenberg-Marquardt algorithm.

[4] = biological target: MTOR (Mammalian target of rapamycin) (Homo sapiens (Human), UniProt P42345); assay: In vitro assay of ability to inhibit MTOR (same conditions as PI3K alpha assay); format: binding; settings: read-out: IC50 for MTOR inhibition
Experimental: as §5, with “qPCR. […]” for “qPCR.”
Binding constants (Kd's) were calculated with a standard dose-response curve using the Hill equation: Response=Background+(Signal−Background)/(1+(Kd^Hill Slope/Dose^Hill Slope)) The Hill Slope was set to −1. […]

[5] = Kidney weight change versus control in A549 xenograft model in nude mice; format: in vivo; settings: day 21, A549 xenograft nude mice
Experimental: as §1, §2, §3, §4

[6] = 49 μmol/kg oral gavage once daily
[7] = 98 μmol/kg oral gavage once daily

PI3K alpha (PIK3CA), sequence (P42336 whole entry, species assumed): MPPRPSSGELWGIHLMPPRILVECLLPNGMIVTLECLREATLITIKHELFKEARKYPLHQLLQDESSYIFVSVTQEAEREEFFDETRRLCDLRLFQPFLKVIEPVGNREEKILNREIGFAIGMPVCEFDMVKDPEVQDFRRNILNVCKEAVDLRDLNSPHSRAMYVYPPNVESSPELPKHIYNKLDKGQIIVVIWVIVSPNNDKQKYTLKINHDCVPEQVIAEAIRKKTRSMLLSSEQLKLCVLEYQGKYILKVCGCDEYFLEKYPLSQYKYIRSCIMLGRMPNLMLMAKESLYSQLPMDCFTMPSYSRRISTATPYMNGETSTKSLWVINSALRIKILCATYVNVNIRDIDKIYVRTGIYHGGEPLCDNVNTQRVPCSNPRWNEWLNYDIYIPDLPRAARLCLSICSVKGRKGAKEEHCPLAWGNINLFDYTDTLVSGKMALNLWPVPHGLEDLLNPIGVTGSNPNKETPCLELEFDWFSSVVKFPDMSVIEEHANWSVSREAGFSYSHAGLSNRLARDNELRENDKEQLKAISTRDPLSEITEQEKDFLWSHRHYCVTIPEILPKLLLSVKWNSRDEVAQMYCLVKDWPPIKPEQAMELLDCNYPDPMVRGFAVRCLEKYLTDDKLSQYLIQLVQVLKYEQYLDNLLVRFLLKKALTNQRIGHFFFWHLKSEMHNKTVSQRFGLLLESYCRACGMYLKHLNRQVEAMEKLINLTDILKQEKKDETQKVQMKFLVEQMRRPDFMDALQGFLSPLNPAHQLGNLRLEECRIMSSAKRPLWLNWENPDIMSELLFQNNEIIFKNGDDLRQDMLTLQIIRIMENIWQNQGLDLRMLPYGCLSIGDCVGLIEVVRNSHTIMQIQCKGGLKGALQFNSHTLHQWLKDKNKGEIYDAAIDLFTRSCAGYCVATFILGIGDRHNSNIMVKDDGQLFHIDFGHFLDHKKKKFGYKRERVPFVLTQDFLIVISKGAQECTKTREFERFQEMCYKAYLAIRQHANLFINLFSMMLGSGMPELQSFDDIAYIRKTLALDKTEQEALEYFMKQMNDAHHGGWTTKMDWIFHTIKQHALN

SMILES | IC50 [1] [nM] | Tumor growth inhibition (TGI, %) at 14 days [2, 6] [%] | Tumor growth inhibition (TGI, %) at 14 days [2, 7] [%] | IC50 [3] [nM] | Kidney weight change compared to the control at 21 days [5, 6] [%] | Kidney weight change compared to the control at 21 days [5, 7] [%] | other results
CC(=O)Nc1cc(C(F)(F)F)c(-c2cc(N3CCOCC3)nc(N3CCOCC3)n2)cn1 [Compound 2, N-(5-(2,6-dimorpholinopyrimidin-4-yl)-4-(trifluoromethyl)pyridin-2-yl)acetamide] | 82.4 | 52 | 82 |  |  |  | 
CCNc1cc(C(F)(F)F)c(-c2cc(N3CCOCC3)nc(N3CCOCC3)n2)cn1 [Compound 5, 5-(2,6-dimorpholinopyrimidin-4-yl)-N-ethyl-4-(trifluoromethyl)pyridin-2-amine] |  |  |  | 10 |  |  | 
CCCNc1cc(C(F)(F)F)c(-c2cc(N3CCOCC3)nc(N3CCOCC3)n2)cn1 [Compound 6, 5-(2,6-dimorpholinopyrimidin-4-yl)-N-propyl-4-(trifluoromethyl)pyridin-2-amine] |  |  |  | 60 |  |  | 
CNc1cc(C(F)(F)F)c(-c2cc(N3CCOCC3)nc(N3CCOCC3)n2)cn1 [Compound 4, 5-(2,6-dimorpholinopyrimidin-4-yl)-N-methyl-4-(trifluoromethyl)pyridin-2-amine] |  |  |  | 1.9 |  |  | 
NCC(=O)Nc1cc(C(F)(F)F)c(-c2cc(N3CCOCC3)nc(N3CCOCC3)n2)cn1 [Compound 9, 2-amino-N-(5-(2,6-dimorpholinopyrimidin-4-yl)-4-(trifluoromethyl)pyridin-2-yl)acetamide] |  |  |  | 0.84 | −5.0 | −8.1 | IC50 [4]: 26 nM; Efficacy in A549 xenograft model at day 21 (in words) ([2]; 49 μmol/kg dose, day 21): better efficacy than Compound 1; Kidney weight decrease compared with the control (in words) [5]: much less decreased kidney weight than Compound 1
Nc1cc(C(F)(F)F)c(-c2cc(N3CCOCC3)nc(N3CCOCC3)n2)cn1 [Compound 1, 5-(2,6-Dimorpholinopyrimidin-4-yl)-4-(trifluoromethyl)pyridin-2-amine, reference compound] | 186 | 36 | 70 |  | −8.7 | −20.1 | 
